# Test results: patent US20240199649A1 (Biosplice Therapeutics, Inc., priority 2022, published 2024)
# Target: recombinant DYRK1A kinase (Homo sapiens (Human), UniProt Q13627)
# Assay: DYRK1A kinase assay (Ser/Thr 18 peptide Z-lyte FRET assay)
# Assay type: biochemical
# Settings: DYRK1A 0.25 μg/mL, ATP 15 μM, Ser/Thr peptide 18 4 μM; one hour at room temperature; 11-point dose-response, duplicate
# Outline: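 Z-lyte FRET assay on Ser/Thr 18 peptide, kinase activity read as coumarin/fluorescein emission ratio; compounds incubated 1 h at room temperature, then development reagent 1 h, in duplicate. Phosphorylated and unphosphorylated peptide served as controls; IC50 by non-linear regression of dose-response curves.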
row,SMILES,IC50 [nM]
1,"CC(=O)N1CC[C@H](Nc2nc(N)c3c(-c4ccc5nc(C)n(CCF)c5n4)ccn3n2)[C@H](F)C1 [Compound 996, 1-((3R,4S)-4-((4-Amino-5-(3-(2-fluoroethyl)-2-methyl-3H-imidazo[4,5-b]pyridin-5-yl)pyrrolo[2,1-f][1,2,4]triazin-2-yl)amino)-3-fluoropiperidin-1-yl)ethan-1-one]",1.8
2,"Cc1nc2ccc(-c3ccn4nc(N[C@H]5CCN(C6COC6)C[C@H]5F)nc(N)c34)nc2n1CCF [Compound 997, N^2-((3R,4S)-3-Fluoro-1-(oxetan-3-yl)piperidin-4-yl)-5-(3-(2-fluoroethyl)-2-methyl-3H-imidazo[4,5-b]pyridn-5-yl)pyrrolo[2,1-f][1,2,4]triazine-2,4-diamine]",1.7
3,"CC(=O)N1CC[C@@H](Nc2nc(N)c3c(-c4ccc5nc(C)n(CCF)c5n4)ccn3n2)C(F)(F)C1 [Compound 998, (R)-1-(4-((4-Amino-5-(3-(2-fluoroethyl)-2-methyl-3H-imidazo[4,5-b]pyridin-5-yl)pyrrolo[2,1-f][1,2,4]triazin-2-yl)amino)-3,3-difluoropiperidin-1-yl)ethan-1-one]",9.2
4,"Cc1nc2ccc(-c3ccn4nc(N[C@@H]5CCN(C6COC6)CC5(F)F)nc(N)c34)nc2n1CCF [Compound 999, (R)—N^2-(3,3-Difluoro-1-(oxetan-3-yl)piperidin-4-yl)-5-(3-(2-fluoroethyl)-2-methyl-3H-imidazo[4,5-b]pyridin-5-yl)pyrrolo[2,1-f][1,2,4]triazine-2,4-diamine]",1.8
5,"Nc1nc(N[C@H]2CC[C@@H](OC(F)F)CC2)nn2ccc(-c3ccc4nnn(CC(F)F)c4n3)c12 [Compound 1000, 5-(3-(2,2-Difluoroethyl)-3H-[1,2,3]triazolo[4,5-b]pyridin-5-yl)-N^2-(cis-4-(difluoromethoxy)cyclohexyl)pyrrolo[2,1-f][1,2,4]triazine-2,4-diamine]",5.1
6,"CNc1nc(NC2CCC(F)(F)CC2)nn2ccc(-c3ccc4ncn(CCF)c4n3)c12 [Compound 1001, N^2-(4,4-Difluorocyclohexyl)-5-(3-(2-fluoroethyl)-3H-imidazo[4,5-b]pyridin-5-yl)-N^4-methylpyrrolo[2,1-f][1,2,4]triazine-2,4-diamine]",2.2
7,"CNc1nc(N[C@H]2CCN(C(C)=O)C[C@H]2F)nn2ccc(-c3ccc4ncn(CCF)c4n3)c12 [Compound 1002, 1-((3R,4S)-3-Fluoro-4-((5-(3-(2-fluoroethyl)-3H-imidazo[4,5-b]pyridin-5-yl)-4-(methylamino)pyrrolo[2,1-f][1,2,4]triazin-2-yl)amino)piperidin-1-yl)ethan-1-one]",1.1
8,"CNc1nc(N[C@H]2CCN(C3COC3)C[C@H]2F)nn2ccc(-c3ccc4ncn(CCF)c4n3)c12 [Compound 1003, N^2-((3R,4S)-3-Fluoro-1-(oxetan-3-yl)piperidin-4-yl)-5-(3-(2-fluoroethyl)-3H-imidazo[4,5-b]pyridin-5-yl)-N4-methylpyrrolo[2,1-f][1,2,4]triazine-2,4-diamine]",1.1
9,"CNc1nc(N[C@@H]2CCN(C)CC2(F)F)nn2ccc(-c3ccc4ncn(CCF)c4n3)c12 [Compound 1004, (R)—N^2-(3,3-Difluoro-1-methylpiperidin-4-yl)-5-(3-(2-fluoroethyl)-3H-imidazo[4,5-b]pyridin-5-yl)-N^4-methylpyrrolo[2,1-f][1,2,4]triazine-2,4-diamine]",1.1
10,"CNc1nc(N[C@@H]2CCN(C3COC3)CC2(F)F)nn2ccc(-c3ccc4ncn(CCF)c4n3)c12 [Compound 1005, (R)—N^2-(3,3-Difluoro-1-(oxetan-3-yl)piperidin-4-yl)-5-(3-(2-fluoroethyl)-3H-imidazo[4,5-b]pyridin-5-yl)-N^4-methylpyrrolo[2,1-f][1,2,4]triazine-2,4-diamine]",0.9
11,"CNc1nc(NC2CCC(F)(F)CC2)nn2ccc(-c3ccc4ncn(CC(F)F)c4n3)c12 [Compound 1007, N^2-(4,4-Difluorocyclohexyl)-5-(3-(2,2-difluoroethyl)-3H-imidazo[4,5-b]pyridin-5-yl)-N^4-methylpyrrolo[2,1-f][1,2,4]triazine-2,4-diamine]",4.1
12,"CNc1nc(N[C@H]2CC[C@@](C)(O)CC2)nn2ccc(-c3ccc4ncn(CC(F)F)c4n3)c12 [Compound 1008, (1r,4r)-4-((5-(3-(2,2-Difluoroethyl)-3H-imidazo[4,5-b]pyridin-5-yl)-4-(methylamino)pyrrolo[2,1-f][1,2,4]triazin-2-yl)amino)-1-methylcyclohexan-1-ol]",0.4
13,"CNc1nc(N[C@H]2CCN(C3COC3)C[C@H]2F)nn2ccc(-c3ccc4ncn(CC(F)F)c4n3)c12 [Compound 1009, 5-(3-(2,2-Difluoroethyl)-3H-imidazo[4,5-b]pyridin-5-yl)-N^2-((3R,4S)-3-fluoro-1-(oxetan-3-yl)piperidin-4-yl)-N4-methylpyrrolo[2,1-f][1,2,4]triazine-2,4-diamine]",2
14,"CNc1nc(N[C@@H]2CCN(C(C)=O)CC2(F)F)nn2ccc(-c3ccc4ncn(CC(F)F)c4n3)c12 [Compound 1010, (R)-1-(4-((5-(3-(2,2-Difluoroethyl)-3H-imidazo[4,5-b]pyridin-5-yl)-4-(methylamino)pyrrolo[2,1-f][1,2,4]triazin-2-yl)amino)-3,3-difluoropiperidin-1-yl)ethan-1-one]",0.5
15,"CNc1nc(N[C@@H]2CCN(C)CC2(F)F)nn2ccc(-c3ccc4ncn(CC(F)F)c4n3)c12 [Compound 1011, (R)—N^2-(3,3-Difluoro-1-methylpiperidin-4-yl)-5-(3-(2,2-difluoroethyl)-3H-imidazo[4,5-b]pyridin-5-yl)-N^4-methylpyrrolo[2,1-f][1,2,4]triazine-2,4-diamine]",1.4
16,"CNc1nc(N[C@H]2CCN(C(C)=O)C[C@H]2F)nn2ccc(-c3ccc4ncn(CC(F)F)c4n3)c12 [Compound 1012, 1-((3R,4S)-4-((5-(3-(2,2-Difluoroethyl)-3H-imidazo[4,5-b]pyridin-5-yl)-4-(methylamino)pyrrolo[2,1-f][1,2,4]triazin-2-yl)amino)-3-fluoropiperidin-1-yl)ethan-1-one]",0.5
17,"CNc1nc(N[C@@H]2CCN(C3COC3)CC2(F)F)nn2ccc(-c3ccc4ncn(CC(F)F)c4n3)c12 [Compound 1013, (R)—N^2-(3,3-Difluoro-1-(oxetan-3-yl)piperidin-4-yl)-5-(3-(2,2-difluoroethyl)-3H-imidazo[4,5-b]pyridin-5-yl)-N4-methylpyrrolo[2,1-f][1,2,4]triazine-2,4-diamine]",0.9
18,"CNc1nc(NC2CCC(F)(F)CC2)nn2ccc(-c3ccc4ncn(CC(F)(F)F)c4n3)c12 [Compound 1014, N^2-(4,4-Difluorocyclohexyl)-N^4-methyl-5-(3-(2,2,2-trifluoroethyl)-3H-imidazo[4,5-b]pyridin-5-yl)pyrrolo[2,1-f][1,2,4]triazine-2,4-diamine]",10.1
19,"CNc1nc(N[C@H]2CCN(C(C)=O)C[C@H]2F)nn2ccc(-c3ccc4ncn(CC(F)(F)F)c4n3)c12 [Compound 1015, 1-((3R,4S)-3-Fluoro-4-((4-(methylamino)-5-(3-(2,2,2-trifluoroethyl)-3H-imidazo[4,5-b]pyridin-5-yl)pyrrolo[2,1-f][1,2,4]triazin-2-yl)amino)piperidin-1-yl)ethan-1-one]",1.4
20,"CNc1nc(N[C@H]2CCN(C3COC3)C[C@H]2F)nn2ccc(-c3ccc4ncn(CC(F)(F)F)c4n3)c12 [Compound 1016, N^2-((3R,4S)-3-Fluoro-1-(oxetan-3-yl)piperidin-4-yl)-N^4-methyl-5-(3-(2,2,2-trifluoroethyl)-3H-imidazo[4,5-b]pyridin-5-yl)pyrrolo[2,1-f][1,2,4]triazine-2,4-diamine]",1.5
21,"CNc1nc(N[C@@H]2CCN(C)CC2(F)F)nn2ccc(-c3ccc4ncn(CC(F)(F)F)c4n3)c12 [Compound 1017, (R)—N^2-(3,3-Difluoro-1-methylpiperidin-4-yl)-N^4-methyl-5-(3-(2,2,2-trifluoroethyl)-3H-imidazo[4,5-b]pyridin-5-yl)pyrrolo[2,1-f][1,2,4]triazine-2,4-diamine]",1.7
22,"CNc1nc(N[C@@H]2CCN(C(C)=O)CC2(F)F)nn2ccc(-c3ccc4ncn(CC(F)(F)F)c4n3)c12 [Compound 1018, (R)-1-(3,3-Difluoro-4-((4-(methylamino)-5-(3-(2,2,2-trifluoroethyl)-3H-imidazo[4,5-b]pyridin-5-yl)pyrrolo[2,1-f][1,2,4]triazin-2-yl)amino)piperidin-1-yl)ethan-1-one]",1.6
23,"CNc1nc(N[C@@H]2CCN(C3COC3)CC2(F)F)nn2ccc(-c3ccc4ncn(CC(F)(F)F)c4n3)c12 [Compound 1019, (R)—N^2-(3,3-Difluoro-1-(oxetan-3-yl)piperidin-4-yl)-N^4-methyl-5-(3-(2,2,2-trifluoroethyl)-3H-imidazo[4,5-b]pyridin-5-yl)pyrrolo[2,1-f][1,2,4]triazine-2,4-diamine]",1.7
24,"CNc1nc(N[C@H]2CCN(C(C)=O)C[C@H]2F)nn2ccc(-c3ccc4nc(C)n(CCF)c4n3)c12 [Compound 1020, 1-((3R,4S)-3-Fluoro-4-((5-(3-(2-fluoroethyl)-2-methyl-3H-imidazo[4,5-b]pyridin-5-yl)-4-(methylamino)pyrrolo[2,1-f][1,2,4]triazin-2-yl)amino)piperidin-1-yl)ethan-1-one]",2.1
25,"CNc1nc(N[C@@H]2CCN(C(C)=O)CC2(F)F)nn2ccc(-c3ccc4nc(C)n(CCF)c4n3)c12 [Compound 1021, (R)-1-(3,3-Difluoro-4-((5-(3-(2-fluoroethyl)-2-methyl-3H-imidazo[4,5-b]pyridin-5-yl)-4-(methylamino)pyrrolo[2,1-f][1,2,4]triazin-2-yl)amino)piperidin-1-yl)ethan-1-one]",1.3
26,"CNc1nc(N[C@H]2CCN(C(C)=O)C[C@H]2F)nn2ccc(-c3ccc4nc(C)n(CC(F)F)c4n3)c12 [Compound 1022, 1-((3R,4S)-4-((5-(3-(2,2-Difluoroethyl)-2-methyl-3H-imidazo[4,5-b]pyridin-5-yl)-4-(methylamino)pyrrolo[2,1-f][1,2,4]triazin-2-yl)amino)-3-fluoropiperidin-1-yl)ethan-1-one]",0.4
